Data: ChEMBL document CHEMBL4411318, “Discovery of a Series of 2'-α-Fluoro,2'-β-bromo-ribonucleosides and Their Phosphoramidate Prodrugs as Potent Pan-Genotypic Inhibitors of Hepatitis C Virus” (J Med Chem, 2019)

Key:
[1] = Cytotoxicity against human CCRF-CEM assessed reduction in cell viability after 4 days by MTT assay; format: cell-based; conditions: CCRF-CEM cells
Vero = format: cell-based; conditions: chlorocebus sabaeus, 72 h
[2] = target: RNA-directed RNA polymerase (Hepacivirus hominis) (UniProt O39930); conditions: Hepatitis C virus subtype 1b
Chain of RNA-directed RNA polymerase (Hepacivirus hominis) (O39930 1-591): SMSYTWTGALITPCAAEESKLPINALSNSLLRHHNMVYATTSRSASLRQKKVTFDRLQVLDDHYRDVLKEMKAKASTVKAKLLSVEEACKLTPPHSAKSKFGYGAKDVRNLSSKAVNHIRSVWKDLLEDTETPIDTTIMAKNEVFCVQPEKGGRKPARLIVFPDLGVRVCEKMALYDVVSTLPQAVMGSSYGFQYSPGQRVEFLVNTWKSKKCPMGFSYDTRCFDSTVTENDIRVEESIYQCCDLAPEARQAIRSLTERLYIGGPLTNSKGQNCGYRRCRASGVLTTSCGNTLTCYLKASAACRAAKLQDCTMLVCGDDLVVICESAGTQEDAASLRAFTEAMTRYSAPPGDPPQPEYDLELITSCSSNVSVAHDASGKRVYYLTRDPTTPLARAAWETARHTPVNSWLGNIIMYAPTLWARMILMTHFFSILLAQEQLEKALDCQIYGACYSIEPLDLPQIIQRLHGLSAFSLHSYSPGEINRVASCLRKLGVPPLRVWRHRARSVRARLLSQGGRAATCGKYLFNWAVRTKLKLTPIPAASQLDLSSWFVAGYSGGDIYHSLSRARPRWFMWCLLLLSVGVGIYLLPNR
Description: Inhibition of NS5B polymerase in wild type HCV genotype 1b infected in human Huh7 replicon cells after 5 days by RT-PCR assay

Huh-7 = experiment: Cytotoxicity against human HuH7 cells assessed reduction in cell viability after 3 to 5 days by cellular ribosomal RNA amplification assay
[3] = Cytotoxicity against human HuH7 cells assessed reduction in cell viability after 3 to 5 days by MTT assay; format: cell-based, Huh-7
[4] = Cytotoxicity against human PBMC assessed reduction in cell viability after 5 days by MTT assay; format: cell-based; conditions: PBMC
[5] = target: DNA-directed RNA polymerase, mitochondrial (Homo sapiens, UniProt O00411); experiment: Substrate activity at human POLRMT assessed as 5-radiolabled RNA/DNA incorporation levels at 100 uM after 2 hrs by PAGE analysis; format: ADME
Chain of DNA-directed RNA polymerase, mitochondrial (O00411 whole entry): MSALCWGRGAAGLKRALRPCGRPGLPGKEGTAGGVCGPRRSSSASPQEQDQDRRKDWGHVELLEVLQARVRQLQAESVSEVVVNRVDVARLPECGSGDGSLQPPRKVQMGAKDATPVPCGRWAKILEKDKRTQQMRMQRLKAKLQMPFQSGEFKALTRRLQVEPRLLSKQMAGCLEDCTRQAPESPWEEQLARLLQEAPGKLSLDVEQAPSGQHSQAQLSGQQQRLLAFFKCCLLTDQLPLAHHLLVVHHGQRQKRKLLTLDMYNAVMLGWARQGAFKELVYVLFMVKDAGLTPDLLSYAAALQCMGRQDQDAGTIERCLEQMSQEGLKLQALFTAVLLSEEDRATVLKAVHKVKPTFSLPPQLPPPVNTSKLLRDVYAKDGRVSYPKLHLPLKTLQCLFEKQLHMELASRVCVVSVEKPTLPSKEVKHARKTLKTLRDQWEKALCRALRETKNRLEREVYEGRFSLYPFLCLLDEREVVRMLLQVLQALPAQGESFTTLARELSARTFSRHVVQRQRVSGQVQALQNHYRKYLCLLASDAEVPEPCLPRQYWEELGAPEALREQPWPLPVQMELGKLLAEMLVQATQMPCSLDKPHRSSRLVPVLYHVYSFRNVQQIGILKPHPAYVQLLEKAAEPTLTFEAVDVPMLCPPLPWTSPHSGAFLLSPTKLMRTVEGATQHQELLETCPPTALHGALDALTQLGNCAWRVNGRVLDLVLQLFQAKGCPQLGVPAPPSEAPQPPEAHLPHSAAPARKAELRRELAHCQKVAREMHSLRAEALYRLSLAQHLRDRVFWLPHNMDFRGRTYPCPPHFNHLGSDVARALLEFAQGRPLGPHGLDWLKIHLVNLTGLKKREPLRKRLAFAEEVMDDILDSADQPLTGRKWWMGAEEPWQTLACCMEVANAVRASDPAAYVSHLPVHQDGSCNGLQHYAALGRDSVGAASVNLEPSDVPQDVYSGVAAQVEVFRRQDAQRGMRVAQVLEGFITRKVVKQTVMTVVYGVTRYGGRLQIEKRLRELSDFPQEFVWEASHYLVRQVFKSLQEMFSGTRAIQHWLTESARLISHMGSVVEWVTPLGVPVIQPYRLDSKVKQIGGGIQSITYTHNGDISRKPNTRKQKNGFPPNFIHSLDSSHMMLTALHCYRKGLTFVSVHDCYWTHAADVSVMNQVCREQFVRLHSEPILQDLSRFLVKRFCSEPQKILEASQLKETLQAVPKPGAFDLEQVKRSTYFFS

HepG2 = experiment: Mitochondrial toxicity in human HepG2 cells assessed as lactic acid production at 50 uM followed by medium plus drugs replenishment every 3 to 4 days for 14 days relative to control; format: cell-based; conditions: hepg2, 336 h
[6] = system: cytochrome c oxidase subunit 2 DNA level; experiment: Mitochondrial toxicity in human HepG2 cells assessed as inhibition of cytochrome c oxidase subunit 2 DNA level at 50 uM followed by medium plus drugs replenishment every 3 to 4 days for 14 days relative to control; format: cell-based
[7] = system: nuclear ribosomal-DNA level; experiment: Mitochondrial toxicity in human HepG2 cells assessed as inhibition of nuclear ribosomal-DNA level at 50 uM followed by medium plus drugs replenishment every 3 to 4 days for 14 days relative to control; format: cell-based
[8] = system: cytochrome c oxidase subunit 2 DNA level; experiment: Mitochondrial toxicity in human HepG2 cells assessed as inhibition of cytochrome c oxidase subunit 2 DNA level followed by medium plus drugs replenishment every 3 to 4 days for 14 days relative to control; format: cell-based
[9] = Stability in Beagle dog plasma assessed as compound remaining at 2 uM up to 2 hrs by LC-MS/MS analysis; format: ADME, cell-free, Canis lupus familiaris; conditions: read-out: Stability
[10] = Stability in Sprague-Dawley rat plasma assessed as compound remaining at 2 uM after 2 hrs by LC-MS/MS analysis; format: ADME, cell-free; conditions: read-out: Stability
[11] = system: nuclear ribosomal-DNA level; experiment: in vitro; conditions: human, HepG2 cells
[12] = Mitochondrial toxicity in human HepG2 cells assessed as reduction in cell viability after 14 days in presence of glucose supplemented media by ATP depletion assay; format: cell-based
[13] = Mitochondrial toxicity in human HepG2 cells assessed as reduction in cell viability after 3 days in presence of galactose supplemented media by ATP depletion assay; format: cell-based
[14] = Mitochondrial toxicity in human HepG2 cells assessed as reduction in cell viability after 3 days in presence of glucose supplemented media by ATP depletion assay; format: cell-based
[15] = target: RNA-directed RNA polymerase (Hepacivirus hominis) (UniProt O39930); experiment: Inhibition of NS5B polymerase in HCV genotype 1b/4a chimeric replicon infected in human HuH7 replicon cells after 5 days by RT-PCR analysis; format: cell-based
[16] = target: RNA-directed RNA polymerase (Hepacivirus hominis) (UniProt O39930); experiment: Inhibition of NS5B polymerase in HCV genotype 2a infected in human HuH7 replicon cells after 5 days by RT-PCR analysis; format: cell-based; conditions: Hepatitis C virus subtype 2a
[17] = target: RNA-directed RNA polymerase (Hepacivirus hominis) (UniProt O39930); experiment: Inhibition of NS5B polymerase in HCV genotype 1b/5a chimeric replicon infected in human HuH7 replicon cells after 5 days by RT-PCR analysis; format: cell-based
[18] = Drug metabolism in human HuH7 cells assessed as Tmax for NTP formation at 10 uM after 2 to 48 hrs by LC-MS/MS analysis; format: ADME, cell-based; conditions: huh-7, 10 µM
Bone marrow cell [19] = experiment: Cytotoxicity against human bone marrow cells assessed as inhibition of burst forming unit-erythroid after 14 days by FACS analysis; format: cell-based; conditions: 336 h
Bone marrow cell [20] = experiment: Cytotoxicity against human bone marrow cells assessed as inhibition of colony-forming unit-granulocyte after 14 days by FACS analysis; format: cell-based; conditions: 336 h
[21] = Cardiotoxicity against human embryonic stem cell-induced ventricular cardiomyocytes administered on day 7 and measured on day 10 after 30 mins incubation by CellTiter Glo assay; format: toxicity, cell-based, Cardiac muscle cell
[22] = Half life in human intestinal microsomes by LC/MS/MS analysis; format: ADME, Intestine, Microsome
[23] = Stability in human plasma assessed as compound remaining at 2 uM after 120 mins by LC/MS/MS analysis; format: ADME, cell-free; conditions: read-out: Stability
[24] = Stability in simulated intestinal fluid after 24 hrs by LC/MS/MS analysis; format: ADME; conditions: simulated gi fluid
[25] = target: RNA-directed RNA polymerase (Hepacivirus hominis) (UniProt O39930); conditions: genotype 1b/3a
Description: Inhibition of NS5B polymerase in HCV genotype 1b/3a chimeric replicon infected in human HuH7 replicon cells after 5 days by RT-PCR analysis

in vitro [26] = conditions: human, liver microsomes
Description: Half life in human liver microsomes in presence of NADPH regenerating system by LC/MS/MS analysis

in vitro [27] = conditions: human, liver microsomes; remark: listed apart in the source
Description: Intrinsic clearance in human liver microsomes in presence of NADPH regenerating system by LC/MS/MS analysis

in vitro [28] = conditions: human, liver microsomes; remark: listed apart in the source
Description: Stability in human liver microsomes assessed as compound remaining in absence of NADPH regenerating system after 60 mins by LC/MS/MS analysis

in vitro [29] = conditions: human, liver microsomes; remark: listed apart in the source
Description: Intrinsic clearance in human liver measured from intrinsic clearance in human liver microsomes in presence of NADPH regenerating system by LC/MS/MS analysis

[30] = Drug uptake in Beagle dog liver at 10 mg/kg, po measured up to 4 hrs by LC-MS/MS analysis; conditions: in vivo, BLD = below limit of detection
[31] = Drug metabolism in Beagle dog liver assessed as formation of triphosphate form parent nucleoside at 10 mg/kg, po measured up to 4 hrs by LC-MS/MS analysis; conditions: in vivo
[32] = target: T1, DNA polymerase alpha catalytic subunit (Homo sapiens, UniProt P09884); experiment: Inhibition of human DNA polymerase alpha using 5-end radiolabeled 24nt to 48nt DNA as primer template after 5 mins in presence of dCTP/dGTP/dTTP/dATP by PAGE analysis
T1 sequence (P09884 whole entry): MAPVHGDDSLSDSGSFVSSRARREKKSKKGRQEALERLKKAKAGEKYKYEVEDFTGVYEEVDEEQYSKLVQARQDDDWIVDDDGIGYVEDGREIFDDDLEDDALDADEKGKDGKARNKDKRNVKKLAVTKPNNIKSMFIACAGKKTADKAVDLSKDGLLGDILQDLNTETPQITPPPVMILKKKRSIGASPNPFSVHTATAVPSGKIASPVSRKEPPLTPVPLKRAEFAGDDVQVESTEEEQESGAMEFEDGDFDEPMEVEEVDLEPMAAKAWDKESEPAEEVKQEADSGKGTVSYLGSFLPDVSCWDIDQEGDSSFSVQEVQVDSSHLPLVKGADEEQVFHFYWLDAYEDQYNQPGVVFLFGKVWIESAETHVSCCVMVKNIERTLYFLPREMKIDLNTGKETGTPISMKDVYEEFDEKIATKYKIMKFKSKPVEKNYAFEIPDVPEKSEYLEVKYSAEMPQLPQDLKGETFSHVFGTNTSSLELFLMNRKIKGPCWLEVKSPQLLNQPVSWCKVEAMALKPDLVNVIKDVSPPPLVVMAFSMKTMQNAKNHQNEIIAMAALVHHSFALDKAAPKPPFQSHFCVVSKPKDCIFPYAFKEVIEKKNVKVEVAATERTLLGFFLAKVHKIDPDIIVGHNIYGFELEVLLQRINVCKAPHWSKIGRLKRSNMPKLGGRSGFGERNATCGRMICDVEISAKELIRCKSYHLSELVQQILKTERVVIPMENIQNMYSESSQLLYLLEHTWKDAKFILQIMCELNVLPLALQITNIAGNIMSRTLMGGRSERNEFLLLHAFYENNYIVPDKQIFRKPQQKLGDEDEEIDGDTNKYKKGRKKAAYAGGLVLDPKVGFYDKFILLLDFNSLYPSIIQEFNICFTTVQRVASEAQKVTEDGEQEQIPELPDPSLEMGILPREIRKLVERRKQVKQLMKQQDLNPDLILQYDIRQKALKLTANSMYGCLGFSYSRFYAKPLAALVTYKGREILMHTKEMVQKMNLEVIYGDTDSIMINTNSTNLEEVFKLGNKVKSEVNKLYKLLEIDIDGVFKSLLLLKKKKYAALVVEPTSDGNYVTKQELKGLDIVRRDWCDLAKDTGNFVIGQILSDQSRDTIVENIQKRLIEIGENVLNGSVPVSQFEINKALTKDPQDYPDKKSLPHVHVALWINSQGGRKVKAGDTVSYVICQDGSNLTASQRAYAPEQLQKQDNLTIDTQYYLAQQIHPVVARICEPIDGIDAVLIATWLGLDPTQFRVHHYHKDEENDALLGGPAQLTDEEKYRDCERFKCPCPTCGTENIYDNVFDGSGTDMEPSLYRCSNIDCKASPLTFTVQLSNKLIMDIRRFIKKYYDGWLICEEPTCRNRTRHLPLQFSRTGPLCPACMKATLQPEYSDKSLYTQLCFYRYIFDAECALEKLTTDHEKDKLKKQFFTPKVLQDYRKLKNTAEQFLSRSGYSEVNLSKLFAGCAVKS

DNA polymerase beta = DNA polymerase beta (Homo sapiens, UniProt P06746); experiment: Inhibition of human DNA polymerase beta using 5-end radiolabeled 24nt to 48nt DNA as primer template after 5 mins in presence of dCTP/dGTP/dTTP/dATP by PAGE analysis
[33] = Inhibition of human DNA polymerase gamma using 5-end radiolabeled 24nt to 48nt DNA as primer template after 120 mins in presence of dCTP/dGTP/dTTP/dATP by PAGE analysis

## Nc1nc2c(ncn2[C@@H]2O[C@H](CO)[C@@H](O)[C@]2(F)Br)c(=O)[nH]1
[1]
  CC50 at 96 h: > 100 µM
Vero
  CC50: > 100 µM
[2]
  EC90: > 10 µM
Huh-7
  CC50: > 10 µM

## Nc1ccn([C@@H]2O[C@H](CO)[C@@H](O)[C@]2(F)Br)c(=O)n1
[1]
  CC50 at 96 h: > 100 µM
Vero
  CC50: > 100 µM
[2]
  EC90: 9.5 µM
Huh-7
  CC50: > 10 µM

## CC(C)OC(=O)[C@H](C)NP(=O)(OC[C@H]1O[C@@H](n2cnc3c(=O)[nH]c(N)nc32)[C@](F)(Br)[C@H]1O)Oc1ccccc1 (stereo partly drawn)
[1]
  CC50 at 96 h: > 100 µM
[2]
  EC90: 1.8 µM

## CC(C)OC(=O)[C@H](C)NP(=O)(OC[C@H]1O[C@@H](n2cnc3c(N)ncnc32)[C@](F)(Br)[C@H]1O)Oc1ccccc1 (stereo partly drawn)
[3]
  CC50: > 10 µM
[4]
  CC50 at 120 h: > 100 µM
[1]
  CC50 at 96 h: > 100 µM

## C[C@@]1(O)[C@H](O)[C@@H](COP(=O)(O)OP(=O)(O)OP(=O)(O)O)O[C@H]1n1ccc(=O)[nH]c1=O
[5]
  Activity: 9.8%

## CC(C)OC(=O)[C@H](C)NP(=O)(OC[C@H]1O[C@@H](n2ccc(=O)[nH]c2=O)[C@](F)(Br)[C@H]1O)Oc1ccccc1 (mixture of isomers)
HepG2
  Activity: 140%
[4]
  CC50 at 120 h: > 100 µM
[1]
  CC50 at 96 h: > 100 µM
[6]
  inhibition at 336 h, 50 µM: 39%
[7]
  inhibition at 336 h, 50 µM: 40%
[8]
  IC50 at 14 days: > 50 µM
[9]
  remaining at 2 h, 2 µM: 100%
[10]
  remaining at 2 h, 2 µM: 0.2%
[2]
  EC90: 0.9 µM
[11]
  IC50 at 14 days: > 50 µM
Huh-7
  CC50: > 10 µM

## CC(C)OC(=O)[C@H](C)N[P@@](=O)(OC[C@H]1O[C@@H](n2ccc(=O)[nH]c2=O)C(F)(Br)C1O)Oc1ccccc1 (single isomer, unassigned)
[12]
  IC50 at 14 days: > 100 µM
[13]
  IC50 at 3 days: > 100 µM
[14]
  IC50 at 3 days: > 100 µM
HepG2
  Activity: 100%
[15]
  EC90: 0.87 µM
[16]
  EC90: 0.83 µM
[3]
  CC50: > 10 µM
[4]
  CC50 at 120 h: > 100 µM
[1]
  CC50 at 96 h: > 100 µM
[17]
  EC90: 0.8 µM
[18]
  Tmax: 24 h
[6]
  inhibition at 336 h, 50 µM: 31%
[7]
  inhibition at 336 h, 50 µM: < 1%
[8]
  IC50 at 14 days: > 50 µM
Bone marrow cell [19]
  IC50: > 100 µM
Bone marrow cell [20]
  IC50: > 100 µM
[21]
  IC50 at 3 days: > 100 µM
[22]
  half-life: 132 min
[23]
  remaining at 2 h, 2 µM: 72%
[24]
  Stability: Stable
[25]
  EC90: 1.6 µM
[2]
  EC90: 0.53 to 2.4 µM
[11]
  IC50 at 14 days: > 50 µM
In vitro [26]
  half-life: 18.4 min
In vitro [27]
  microsomal CLint: 75.3 µL/min/mg
In vitro [28]
  remaining at 1 h: 26.6%
In vitro [29]
  CLint scaled: 67.8 mL/min/kg
[30]
  Drug uptake: Bld
[31]
  Drug metabolism: Metabolite_Notdetected

## CC(C)OC(=O)[C@H](C)NP(=O)(OC[C@H]1O[C@@H](n2ccc(N)nc2=O)C(F)(Br)C1O)Oc1ccccc1 (single isomer, unassigned)
[1]
  CC50 at 96 h: > 100 µM
Vero
  CC50: > 100 µM
[2]
  EC90: 1.8 µM
Huh-7
  CC50: > 10 µM

## Nc1ncnc2c1ncn2[C@@H]1O[C@H](CO)C(O)C1(F)Br (single isomer, unassigned)
[1]
  CC50 at 96 h: > 100 µM
Vero
  CC50: > 100 µM
[2]
  EC90: > 10 µM
Huh-7
  CC50: > 10 µM

## O=C(O)Cc1ccccc1Nc1c(Cl)cccc1Cl [DICLOFENAC]
In vitro [29]
  CLint scaled: 116 mL/min/kg

## C[C@@]1(F)[C@H](O)[C@@H](COP(=O)(O)OP(=O)(O)OP(=O)(O)O)O[C@H]1n1ccc(=O)[nH]c1=O [GS-461203]
[5]
  Activity: 3.1%
[32]
  IC50: > 100 µM
DNA polymerase beta
  IC50: > 100 µM
[33]
  IC50: > 100 µM

## O=c1ccn([C@@H]2O[C@H](COP(=O)(O)OP(=O)(O)OP(=O)(O)O)[C@@H](O)[C@H]2O)c(=O)[nH]1 [URIDINE TRIPHOSPHATE]
[5]
  Activity: 100%
